The structures appear in SMILES notation. pEC50: −log10 of the molar value. Active and inactive are the calls of the source. The calls are words filed in the database; no cut-off is given here.

In test [1] the test system is SK-N-AS. Briefly: Antiproliferative activity against human SK-N-AS cells after 24 hrs. Type of test: functional.
For test [2], the system named is SK-N-BE(2)-M17. Briefly: Antiproliferative activity against human SK-N-BE(2)-M17 cells after 24 hrs. Type of test: functional.
Test [3] relates to SK-N-FI. Briefly: Antiproliferative activity against human SK-N-FI cells after 24 hrs. Type of test: functional.
Test [4] concerns Kelly. The test can be described thus: (§1) Antiproliferative activity against human Kelly cells after 24 hrs. The class given is functional.
Test [5] in a line: as §1. Type of test: functional. The note with it: read-out: ED50 (the source's name).
The subject of test [6] is SK-N-FI. The test can be described thus: Induction of apoptosis in human SK-N-FI cells assessed as PARP cleavage at 12.5 to 50 uM after 6 to 24 hrs by […]. As to conditions: dose microM 12.5-50, time hrs 6-24. The class given is functional, cell-based.
The subject of test [7] is SK-N-BE(2)-M17. The test can be described thus: Induction of apoptosis in human SK-N-BE(2)-M17 cells assessed as PARP cleavage at 12.5 to 50 uM after 6 to 24 hrs by […]. The class given is functional, cell-based. The note with it: dose microM 12.5-50, time hrs 6-24.
The subject of test [8] is SK-N-AS. Briefly: Induction of apoptosis in human SK-N-AS cells assessed as PARP cleavage at 12.5 to 50 uM after 6 to 24 hrs by […]. The class given is functional, cell-based. As to conditions: dose microM 12.5-50, time hrs 6-24.
The subject of test [9] is Kelly. The test can be described thus: Induction of apoptosis in human Kelly cells assessed as PARP cleavage at 12.5 to 50 uM after 6 to 24 hrs by […]. Type of test: functional, cell-based. As to conditions: dose microM 12.5-50, time hrs 6-24.
The mark [10] stands for this setting: read-out: ED50 (the source's name).

Regarding `NCCCC(N)(C(=O)O)C(F)F` (stereo not given), the Activity entry with SK-N-AS [1], in the test on SK-N-BE(2)-M17 [2] and in the test with SK-N-FI [3] was “Dose-dependent effect” throughout.
On to `C=CCS[S+]([O-])CC=C` (stereo not given) [ALLICIN], for which the Activity entry in the test on SK-N-AS [1], in the test with SK-N-BE(2)-M17 [2], in the test on Kelly [4] and in the test on SK-N-FI [3] was “Dose-dependent effect” in each case. Besides, the pEC50 in the test on SK-N-AS [1] (setting [10]) was 4.71; in the test on SK-N-BE(2)-M17 [2] (setting [10]) it was 4.99; in [5] it was 5.04; with SK-N-FI [3] (setting [10]), 4.74. Further, the result with SK-N-FI [6], in the test with SK-N-BE(2)-M17 [7], in the test on SK-N-AS [8] and with Kelly [9] was Active.

The record behind these values is ChEMBL document CHEMBL4665742 (J Nat Prod, 2020).
